Results taken from patent publication US3939143A, “1-N-isoserylkanamycins and the production thereof” (Zaidan Hojin Biseibutsu Kagaku Kenkyu Kai, priority 1973, dated 1976).
In brackets after ≈: the same amount, converted by molar mass. Read-outs that look alike come from different tables or passages of the source.

Tests used:
[1] = tested on: Staphylococcus aureus FDA 209P; experiment: Minimum inhibitory concentration, serial dilution on nutrient agar; assay type: cell-based; conditions: FDA209P, read-out: Minimum Inhibitory Concentration
[2] = tested on: Staphylococcus aureus Smith; experiment: as above; assay type: cell-based; conditions: read-out: Minimum Inhibitory Concentration
[3] = tested on: Staphylococcus aureus Terajima; experiment: as above; assay type: cell-based; conditions: read-out: Minimum Inhibitory Concentration
Sarcina lutea PCI 1001 = experiment: as above; assay type: cell-based; conditions: Micrococcus luteus, read-out: Minimum Inhibitory Concentration
Bacillus anthracis = experiment: microbe, parasite or virus in culture; assay type: cell-based; conditions: 18 h, read-out: Minimum Inhibitory Concentration
[4] = tested on: Bacillus subtilis PCI 219; experiment: Minimum inhibitory concentration, serial dilution on nutrient agar; assay type: cell-based; conditions: read-out: Minimum Inhibitory Concentration
[5] = tested on: Bacillus subtilis NRRL B-558; experiment: as above; assay type: cell-based; conditions: read-out: Minimum Inhibitory Concentration
[6] = tested on: Bacillus cereus ATCC 10702; experiment: as above; assay type: cell-based; conditions: read-out: Minimum Inhibitory Concentration
[7] = tested on: Corynebacterium bovis 1810; experiment: as above; assay type: cell-based; conditions: read-out: Minimum Inhibitory Concentration
[8] = tested on: Mycobacterium smegmatis ATCC 607; experiment: as above; assay type: cell-based; conditions: Mycolicibacterium smegmatis, read-out: Minimum Inhibitory Concentration
[9] = tested on: Shigella dysenteriae JS 11910; experiment: as above; assay type: cell-based; conditions: JS11910, 18 h, read-out: Minimum Inhibitory Concentration
[10] = tested on: Escherichia coli K-12 ML 1630; experiment: as above; assay type: cell-based; conditions: K12ML1630, 37°C, 18 hours
Protocol: (§1) The minimum inhibitory concentrations (mcg/ml) of 1-N-DL-isoserylkanamycin,1-N-DL-isoserylkanamycin B and 1-N-DL-isoseryl-3',4'-dideoxykanamycin B against various microorganisms were determined according to the serial dilution method using nutrient agar medium at 37°C, the estimation being effected after 18 hours incubation. For comparison purposes, the minimum inhibitory concentrations of kanamycin, kanamycin B and 3',4'-dideoxykanamycin B were also determined in the same manner and under the same conditions as mentioned above.
(§2) The antibacterial spectra of 1-N-DL-isoseryl-kanamycin (abbreviated as 1-IS-KM), 1-N-DL-isoseryl-kanamycin B (abbreviated as 1-IS-KMB) and 1-N-DL-isoseryl-3',4'-dideoxykanamycin B (abbreviated as 1-IS-DKB) are shown in the following table together with those of kanamycin (abbreviatedas KM), kanamycin B (abbreviated as KMB) and 3',4'-dideoxykanamycin B (abbreviated as DKB).

[11] = tested on: Pseudomonas aeruginosa A3; experiment: as above; assay type: cell-based; conditions: 37°C, 18 hours
Protocol: as §1, §2

[12] = tested on: Pseudomonas aeruginosa TI-13; experiment: as above; assay type: cell-based; conditions: TI13, 37°C, 18 hours
Protocol: as §1, §2

[13] = tested on: Shigella flexneri 4b JS 11811; experiment: as above; assay type: cell-based; conditions: 4BJS11811, 37°C, 18 hours
Protocol: as §1, §2

Shigella sonnei JS 11746 = experiment: as above; assay type: cell-based; conditions: JS11746, 37°C, 18 hours
Protocol: as §1, §2

Salmonella typhosa T-63 = experiment: as above; assay type: cell-based; conditions: Salmonella enterica, 18 h, read-out: Minimum Inhibitory Concentration
[14] = tested on: Salmonella enteritidis 1891; experiment: as above; assay type: cell-based; conditions: Salmonella enterica, 18 h, read-out: Minimum Inhibitory Concentration
Proteus vulgaris OX 19 = experiment: as above; assay type: cell-based; conditions: read-out: Minimum Inhibitory Concentration
[15] = tested on: Klebsiella pneumoniae PCI 602; experiment: as above; assay type: cell-based; conditions: read-out: Minimum Inhibitory Concentration
[16] = tested on: Klebsiella pneumoniae 22 No. 3038; experiment: as above; assay type: cell-based; conditions: read-out: Minimum Inhibitory Concentration
Escherichia coli NIHJ = experiment: as above; assay type: cell-based; conditions: read-out: Minimum Inhibitory Concentration
Escherichia coli K-12 = experiment: as above; assay type: cell-based; conditions: read-out: Minimum Inhibitory Concentration
[17] = tested on: Escherichia coli K-12 ML 1629; experiment: as above; assay type: cell-based; conditions: K12ML1629, 37°C, 18 hours, read-out: Minimum Inhibitory Concentration
[18] = tested on: Escherichia coli K-12 ML 1410; experiment: as above; assay type: cell-based; conditions: K12ML1410, 18 h, read-out: Minimum Inhibitory Concentration
[19] = tested on: Escherichia coli K-12 ML 1410 R81; experiment: as above; assay type: cell-based; conditions: 18 h, read-out: Minimum Inhibitory Concentration
[20] = tested on: Escherichia coli LA290 R55; experiment: as above; assay type: cell-based; conditions: LA290R55, 18 h, read-out: Minimum Inhibitory Concentration
[21] = tested on: Escherichia coli LA290 R56; experiment: as above; assay type: cell-based; conditions: LA290R56, 18 h, read-out: Minimum Inhibitory Concentration
[22] = tested on: Escherichia coli LA290 R64; experiment: as above; assay type: cell-based; conditions: LA290R64, 18 h, read-out: Minimum Inhibitory Concentration
Escherichia coli W677 = experiment: as above; assay type: cell-based; conditions: read-out: Minimum Inhibitory Concentration
[23] = tested on: Escherichia coli JR66/W677; experiment: as above; assay type: cell-based; conditions: JR66/W677, 37°C, 18 hours, read-out: Minimum Inhibitory Concentration
[24] = tested on: Pseudomonas aeruginosa No.12; experiment: as above; assay type: cell-based; conditions: read-out: Minimum Inhibitory Concentration
[25] = tested on: Pseudomonas aeruginosa GN315; experiment: as above; assay type: cell-based; conditions: read-out: Minimum Inhibitory Concentration
[26] = tested on: Pseudomonas aeruginosa 99; experiment: as above; assay type: cell-based; conditions: read-out: Minimum Inhibitory Concentration
[27] = tested on: kanamycin-resistant strains; conditions: phosphotransferase-producing resistant strains; cited from earlier work
[28] = tested on: Escherichia coli JR66/W677; conditions: nucleotidyltransferase-producing resistant strain; cited from earlier work
phosphotransferase = conditions: phosphorylation of the 3'-hydroxyl group; cited from earlier work
nucleotidyltransferase = conditions: adenylylation of 2"-hydroxyl group with ATP; cited from earlier work
[29] = tested on: gram-negative and gram-positive bacteria; experiment: antibacterial activity, in words; assay type: cell-based; conditions: optically active L- or D-isoseryl form
Protocol: as §1, §2

mice = experiment: acute toxicity upon intravenous injection in mice; assay type: in vivo; conditions: optically active L- or D-isoseryl form
[30] = tested on: kanamycin- and ribostamycin-resistant bacteria; conditions: some kanamycin- and ribostamycin-resistant bacteria; cited from earlier work

## NC[C@@H]1CC[C@@H](N)[C@@H](O[C@H]2[C@H](O)[C@@H](O[C@H]3O[C@H](CO)[C@@H](O)[C@H](N)[C@H]3O)[C@H](N)C[C@@H]2N)O1 [DKB, 3',4'-dideoxykanamycin B, reference compound]
[1]; 37°C, 18 hours
  MIC: < 0.2 µg/mL
[2]; 37°C, 18 hours
  MIC: < 0.2 µg/mL
[3]; 37°C, 18 hours
  MIC: < 0.2 µg/mL
Sarcina lutea PCI 1001; PCI1001, 37°C, 18 hours
  MIC: 6.25 µg/mL (≈ 13.8 µM)
Bacillus anthracis
  MIC: < 0.2 µg/mL
[4]; PCI219, 37°C, 18 hours
  MIC: < 0.2 µg/mL
[5]; NRRLB558, 37°C, 18 hours
  MIC: < 0.2 µg/mL
[6]; ATCC10702, 37°C, 18 hours
  MIC: 0.78 µg/mL (≈ 1.73 µM)
[7]; Corynebacterium bovis, 1810, 37°C, 18 hours
  MIC: 3.13 µg/mL (≈ 6.93 µM)
[8]; ATCC607, 37°C, 18 hours
  MIC: 0.39 µg/mL (≈ 0.864 µM)
[9]
  MIC: 1.56 µg/mL (≈ 3.45 µM)
[10]
  MIC: 0.78 µg/mL (≈ 1.73 µM)
[11]
  MIC: 1.56 µg/mL (≈ 3.45 µM)
[12]
  MIC: 1.56 µg/mL (≈ 3.45 µM)
[13]
  MIC: 1.56 µg/mL (≈ 3.45 µM)
Shigella sonnei JS 11746
  MIC: 0.78 µg/mL (≈ 1.73 µM)
Salmonella typhosa T-63
  MIC: < 0.2 µg/mL
[14]
  MIC: 1.56 µg/mL (≈ 3.45 µM)
Proteus vulgaris OX 19; OX19, 37°C, 18 hours
  MIC: < 0.2 µg/mL
[15]; PCI602, 37°C, 18 hours
  MIC: 0.39 µg/mL (≈ 0.864 µM)
[16]; 22NO.3038, 37°C, 18 hours
  MIC: 100 µg/mL (≈ 221 µM)
Escherichia coli NIHJ; 37°C, 18 hours
  MIC: 0.39 µg/mL (≈ 0.864 µM)
Escherichia coli K-12; K12, 37°C, 18 hours
  MIC: 0.78 µg/mL (≈ 1.73 µM)
[17]
  MIC: 0.78 µg/mL (≈ 1.73 µM)
[18]
  MIC: 1.56 µg/mL (≈ 3.45 µM)
[19]
  MIC: 1.56 µg/mL (≈ 3.45 µM)
[20]
  MIC: 50 µg/mL (≈ 111 µM)
[21]
  MIC: 12.5 µg/mL (≈ 27.7 µM)
[22]
  MIC: 6.25 µg/mL (≈ 13.8 µM)
Escherichia coli W677; W677, 37°C, 18 hours
  MIC: 0.2 µg/mL (≈ 0.443 µM)
[23]
  MIC: 50 µg/mL (≈ 111 µM)
[24]; NO.12, 37°C, 18 hours
  MIC: 0.78 µg/mL (≈ 1.73 µM)
[25]; GN315, 37°C, 18 hours
  MIC: > 100 µg/mL
[26]; Pseudomonas aeruginosa, 99, 37°C, 18 hours
  MIC: 3.13 µg/mL (≈ 6.93 µM)
[27]
  activity against kanamycin-resistant strains: actually effective
[28]
  activity against Escherichia coli JR66/W677: inactive
phosphotransferase
  susceptibility to / inactivation by phosphotransferase: not susceptible
nucleotidyltransferase
  inactivation by nucleotidyltransferase: inactivating

## NC[C@@H](O)C(=O)N[C@@H]1C[C@H](N)[C@@H](O[C@H]2O[C@H](CN)[C@@H](O)[C@H](O)[C@H]2O)[C@H](O)[C@H]1O[C@H]1O[C@H](CO)[C@@H](O)[C@H](N)[C@H]1O [1-N-D-isoserylkanamycin]
[29]
  antibacterial activity relative to the DL-form (racemic form): the same as those of 1-N-DL-isoserylkanamycin
mice
  toxicity relative to the DL-form: the same as those of 1-N-DL-isoserylkanamycin

## NCC[C@H](O)C(=O)N[C@@H]1C[C@H](N)[C@@H](O[C@H]2O[C@H](CN)[C@@H](O)[C@H](O)[C@H]2N)[C@H](O[C@@H]2O[C@H](CO)[C@@H](O)[C@H]2O)[C@H]1O [butirosin B, 1-N-[(S)-4-amino-2-hydroxy-n-butyryl]-ribostamycin]
[30]
  activity against resistant bacteria: active

## NC[C@H]1O[C@H](O[C@H]2[C@H](O)[C@@H](O[C@H]3O[C@H](CO)[C@@H](O)[C@H](N)[C@H]3O)[C@H](N)C[C@@H]2N)[C@H](O)C[C@@H]1O [3'-Deoxykanamycin]
[27]
  activity against kanamycin-resistant strains: actually effective
[28]
  activity against Escherichia coli JR66/W677: inactive
phosphotransferase
  susceptibility to / inactivation by phosphotransferase: not susceptible

## NC[C@H](O)C(=O)N[C@@H]1C[C@H](N)[C@@H](O[C@H]2O[C@H](CN)[C@@H](O)[C@H](O)[C@H]2O)[C@H](O)[C@H]1O[C@H]1O[C@H](CO)[C@@H](O)[C@H](N)[C@H]1O [1-N-L-isoserylkanamycin]
[29]
  antibacterial activity relative to the DL-form (racemic form): the same as those of 1-N-DL-isoserylkanamycin
mice
  toxicity relative to the DL-form: the same as those of 1-N-DL-isoserylkanamycin

## NC[C@H]1O[C@H](O[C@H]2[C@H](O)[C@@H](O[C@H]3O[C@H](CO)[C@@H](O)[C@H](N)[C@H]3O)[C@H](N)C[C@@H]2N)[C@H](O)[C@@H](O)[C@@H]1O [KM, kanamycin]
[1]; 18 h
  MIC: 0.78 µg/mL (≈ 1.61 µM)
[2]; 18 h
  MIC: < 0.2 µg/mL
[3]; 18 h
  MIC: < 0.2 µg/mL
Sarcina lutea PCI 1001; PCI1001, 18 h
  MIC: 6.25 µg/mL (≈ 12.9 µM)
Bacillus anthracis
  MIC: < 0.2 µg/mL
[4]; PCI219, 18 h
  MIC: < 0.2 µg/mL
[5]; NRRLB558, 18 h
  MIC: < 0.2 µg/mL
[6]; ATCC10702, 18 h
  MIC: 1.56 µg/mL (≈ 3.22 µM)
[7]; Corynebacterium bovis, 1810, 18 h
  MIC: 3.13 µg/mL (≈ 6.46 µM)
[8]; ATCC607, 18 h
  MIC: 0.78 µg/mL (≈ 1.61 µM)
[9]
  MIC: 6.25 µg/mL (≈ 12.9 µM)
[10]
  MIC: > 100 µg/mL
[11]
  MIC: 50 µg/mL (≈ 103 µM)
[12]
  MIC: > 100 µg/mL
[13]
  MIC: 6.25 µg/mL (≈ 12.9 µM)
Shigella sonnei JS 11746
  MIC: 3.13 µg/mL (≈ 6.46 µM)
Salmonella typhosa T-63
  MIC: 0.39 µg/mL (≈ 0.805 µM)
[14]
  MIC: 0.78 µg/mL (≈ 1.61 µM)
Proteus vulgaris OX 19; OX19, 18 h
  MIC: 0.78 µg/mL (≈ 1.61 µM)
[15]; PCI602, 18 h
  MIC: 0.78 µg/mL (≈ 1.61 µM)
[16]; 22NO.3038, 18 h
  MIC: > 100 µg/mL
Escherichia coli NIHJ; 18 h
  MIC: 1.56 µg/mL (≈ 3.22 µM)
Escherichia coli K-12; K12, 18 h
  MIC: 1.56 µg/mL (≈ 3.22 µM)
[17]
  MIC: > 100 µg/mL
[18]
  MIC: 1.56 µg/mL (≈ 3.22 µM)
[19]
  MIC: > 100 µg/mL
[20]
  MIC: 100 µg/mL (≈ 206 µM)
[21]
  MIC: 12.5 µg/mL (≈ 25.8 µM)
[22]
  MIC: 12.5 µg/mL (≈ 25.8 µM)
Escherichia coli W677; W677, 18 h
  MIC: 1.56 µg/mL (≈ 3.22 µM)
[23]
  MIC: > 100 µg/mL
[24]; NO.12, 18 h
  MIC: 25 µg/mL (≈ 51.6 µM)
[25]; GN315, 18 h
  MIC: > 100 µg/mL
[26]; Pseudomonas aeruginosa, 99, 18 h
  MIC: > 100 µg/mL
nucleotidyltransferase
  inactivation by nucleotidyltransferase: inactivating
